Experimental data from US11004539B2, “Predicting metabolic side effects of transported drugs” (The Regents of the University of California, priority 2016, dated 2021).
Counter-ions that a name gives are not always drawn. Like-named read-outs stand apart in the source and are kept apart here.

Key:
[1] = target: T1, OAT3 (Mus musculus, UniProt O88909); assay: Plasma metabolomics profiling of Oat3KO versus wild-type mice; conditions: Oat3KO vs wild type mice
T1 sequence (O88909 1-537): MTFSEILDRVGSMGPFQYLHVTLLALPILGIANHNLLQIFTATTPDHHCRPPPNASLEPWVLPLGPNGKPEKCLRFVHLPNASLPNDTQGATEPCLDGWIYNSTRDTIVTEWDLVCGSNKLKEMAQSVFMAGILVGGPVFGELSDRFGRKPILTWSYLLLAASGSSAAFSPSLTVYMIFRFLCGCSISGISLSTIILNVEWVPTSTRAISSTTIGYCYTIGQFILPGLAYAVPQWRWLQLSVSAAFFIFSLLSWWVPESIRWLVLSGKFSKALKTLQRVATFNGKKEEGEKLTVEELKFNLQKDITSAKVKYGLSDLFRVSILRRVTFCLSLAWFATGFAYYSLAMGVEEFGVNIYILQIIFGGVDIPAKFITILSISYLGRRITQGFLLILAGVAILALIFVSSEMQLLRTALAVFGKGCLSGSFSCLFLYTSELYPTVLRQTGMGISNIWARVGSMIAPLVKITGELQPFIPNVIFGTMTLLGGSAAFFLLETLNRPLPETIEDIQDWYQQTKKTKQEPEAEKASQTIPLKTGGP

[2] = target: T2, OAT1 (Mus musculus, UniProt Q8VC69); assay: Uptake inhibition assay in Oat1-transfected CHO cells (6-carboxyfluorescein tracer); assay type: cell-based; parameters: expressed in transfected cells; host or cells: CHO cells; conditions: for Ki: read-out: calculated Ki; for interaction with OAT1 in in vitro assays: set of 8 predicted metabolites tested
T2 sequence (Q8VC69 1-545): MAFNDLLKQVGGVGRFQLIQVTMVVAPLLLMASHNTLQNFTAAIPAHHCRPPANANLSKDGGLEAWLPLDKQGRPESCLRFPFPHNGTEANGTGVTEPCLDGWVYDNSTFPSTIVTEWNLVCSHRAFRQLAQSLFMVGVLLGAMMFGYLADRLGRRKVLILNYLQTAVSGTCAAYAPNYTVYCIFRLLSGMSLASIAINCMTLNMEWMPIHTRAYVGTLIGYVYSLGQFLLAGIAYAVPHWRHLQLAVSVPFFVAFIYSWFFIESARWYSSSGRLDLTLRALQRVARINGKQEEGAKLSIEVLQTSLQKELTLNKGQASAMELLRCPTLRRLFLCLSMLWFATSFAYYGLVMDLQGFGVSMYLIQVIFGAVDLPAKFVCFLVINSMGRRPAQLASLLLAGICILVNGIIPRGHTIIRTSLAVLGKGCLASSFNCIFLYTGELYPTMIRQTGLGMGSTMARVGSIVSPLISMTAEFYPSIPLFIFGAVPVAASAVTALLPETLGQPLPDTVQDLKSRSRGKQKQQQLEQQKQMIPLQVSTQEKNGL
Description: (A) The IC50 curves for the metabolites characterized in the in vitro uptake inhibition assay using CHO stably expressing Oat1. […] (B) The table summarizes the calculated Ki and metabolic pathways the characterized metabolites were involved in.
Oat1-transfected CHO cells cultured on 96-well plates were incubated in the presence of 10 μM 6-carboxyfluorescein with or without individual metabolites (with controls treated with the OAT1 inhibitor probenecid). The IC50 curves for novel ligands were plotted in Prism Software (GraphPad Inc., San Diego, Calif.), and the IC50 values were converted to Ki (inhibition affinity) using the Cheng-Prusoff equation.

[3] = target: T1, OAT3; assay: cell-based
[4] = target: T2, OAT1; assay: cell-based
[5] = target: T2, OAT1
[6] = target: T2, OAT1; conditions: OAT1 vs OAT3; cited from earlier work
[7] = target: T2, OAT1; assay: Uptake inhibition assay, CHO cells constitutively expressing mouse Oat1; conditions: 6-carboxyfluorescein as fluorescent tracer
[8] = target: T1, OAT3; conditions: OAT3-expressing cells; 5-carboxyfluorescein as fluorescent tracer
[9] = target: T1, OAT3; conditions: in vivo
[10] = statistical significance not achieved

Which “change in plasma of the Oat3KO” value [1] does the source give for `O=C(O)CCCCCCCCC(=O)O` [sebacate] here?
The value was “altered”.

Which “change in plasma of the Oat3KO” value [1] does the source give for `C[C@H](CCC(=O)O)[C@H]1CC[C@H]2[C@@H]3C(=O)C[C@@H]4C[C@H](O)CC[C@]4(C)[C@H]3C[C@H](O)[C@]12C` [7-ketodeoxycholate] here?
The value was “significantly increased”.

With `C[C@H](CCC(=O)O)[C@H]1CC[C@H]2[C@@H]3[C@H](O)C[C@@H]4C[C@H](O)CC[C@]4(C)[C@H]3CC[C@]12C` [chenodeoxycholate] as the compound, how does the “change in plasma of the Oat3KO” value [1, 10] read?
Its value is “increased”.

Which “change in plasma of the Oat3KO” value [1] does the source give for `O=C(O)c1c[nH]c2ccccc12` [indole-3-carboxylic acid] here?
The value was “accumulate in the plasma”.

With `C[C@H](CCC(=O)O)[C@H]1CC[C@H]2[C@@H]3[C@@H](O)C[C@@H]4C[C@H](O)CC[C@]4(C)[C@H]3CC[C@]12C` [ursodeoxycholate] as the compound, how does the “change in plasma of the Oat3KO” value [1] read?
Its value is “significantly increased”.

Which Ki [2] does the source give for `CCCCC[C@H](O)/C=C/[C@H]1[C@H](O)CC(=O)[C@@H]1CCCCCCC(=O)O` [prostaglandin E1] here?
The Ki was 12 µM.

What about the “interaction with OAT1 in in vitro assays” value [2] of the same compound?
The value was “directly interacting with OAT1”.

For `O=S(=O)(O)Oc1ccccc1` [phenol sulfate], which “change in plasma of the Oat3KO” value [1] is on record?
Its value is “significantly increased”.

With `Cc1ccc(OS(=O)(=O)O)cc1` [p-cresol sulfate] as the compound, how does the “change in plasma of the Oat3KO” value [1] read?
Its value is “significantly increased”.

With `O=C(O)CCCCCCCCCCCCCCCO` [16-hydroxy-hexadecanoic acid] as the compound, how does the Ki [2] read?
The Ki was 13 µM.

And the “interaction with OAT1 in in vitro assays” value [2]?
Its value is “directly interacting with OAT1”.

With `C[C@H](CCC(=O)NCCS(=O)(=O)[O-])[C@H]1CC[C@H]2[C@@H]3C[C@H](O)[C@@H]4C[C@H](O)CC[C@]4(C)[C@H]3CC[C@]12C.[Na+]` [taurohyodeoxycholic acid] as the compound, how does the “change in plasma of the Oat3KO” value [1, 10] read?
The value was “increased over ten-fold”.

For `Cc1nc2n(c(=O)c1CCN1CCC(c3noc4cc(F)ccc34)CC1)CCCC2O` (stereo not drawn) [Paliperidone], which IC50 [3] is on record?
The IC50 was 260 µM.

What about the IC50 [4] of the same compound?
Its IC50 is 1080 µM.

For `OC(CNCC(O)C1CCc2cc(F)ccc2O1)C1CCc2cc(F)ccc2O1` (stereo not drawn) [Nebivolol], which IC50 [3] is on record?
Its IC50 is 169 µM.

And the “IC50 OAT1” value [5]?
The value was “No significant”.

For equol glucuronide, which “increase in plasma of the Oat3KO” value ([1]; significantly altered) is on record?
Its value is “more than 42 fold”.

With `C[C@H](CCC(=O)NCC(=O)O)[C@H]1CC[C@H]2[C@@H]3[C@H](O)C[C@@H]4C[C@H](O)CC[C@]4(C)[C@H]3C[C@H](O)[C@]12C` [glycocholate] as the compound, how does the “change in plasma of the Oat3KO” value [1, 10] read?
The value was “increased”.

For `CCCCCC/C=C\CCCCCCCC(=O)O` [palmitoleic acid], which Ki [2] is on record?
The Ki was 200 µM.

And the “interaction with OAT1 in in vitro assays” value [2]?
The value was “directly interacting with OAT1”.

For `C[C@H](CCC(=O)O)[C@H]1CC[C@H]2[C@@H]3[C@@H](O)[C@@H](O)[C@@H]4C[C@H](O)CC[C@]4(C)[C@H]3CC[C@]12C` [beta-muricholate], which “increase in plasma of the Oat3KO” value ([1]; significantly altered) is on record?
Its value is “over 24 fold”.

For `NC(=O)C(c1ccccc1)(c1ccccc1)[C@@H]1CCN(CCc2ccc3c(c2)CCO3)C1` [Darifenacin], which IC50 [3] is on record?
Its IC50 is 198 µM.

What about the IC50 [4] of the same compound?
Its IC50 is 807 µM.

For `O=S(=O)(O)Oc1c[nH]c2ccccc12` [3-indoxyl sulfate], which “change in plasma of the Oat3KO” value [1] is on record?
The value was “accumulate in the plasma”.

For `CN/C(=N/CCSCc1nc[nH]c1C)NC#N` [cimetidine], which “affinity for OAT1 compared to OAT3, fold less” value [6] is on record?
Its value is “roughly 10 fold”.

For equol sulfate, which “increase in plasma of the Oat3KO” value ([1]; significantly altered) is on record?
Its value is “more than 7 fold”.

Which results are given for `Nc1nc2c(c(=O)[nH]1)N=C(CNc1ccc(C(=O)N[C@@H](CCC(=O)O)C(=O)O)cc1)CN2` [dihydrofolic acid]?
Ki [2]: 93 µM; interaction with OAT1 in in vitro assays [2]: directly interacting with OAT1

With `CCCCN(CCCC)CCC(O)c1cc2c(Cl)cc(Cl)cc2c2cc(C(F)(F)F)ccc12` (stereo not drawn) [Halofantrine] as the compound, how does the “IC50 OAT1” value [7] read?
The value was “No inhibition”.

What about the “IC50 OAT3” value [8] of the same compound?
Its value is “No inhibition”.

Which “change in plasma of the Oat3KO” value [1] does the source give for `CC(=O)N[C@@H](CC(=O)c1ccccc1N)C(=O)O` [N-acetylkynurenine] here?
The value was “accumulate in the plasma”.

Which “change in plasma of the Oat3KO” value [1] does the source give for `NCCc1c[nH]c2ccc(O)cc12` [serotonin] here?
Its value is “accumulate in the plasma”.

For `CN(C)C(=O)C(CCN1CCC(O)(c2ccc(Cl)cc2)CC1)(c1ccccc1)c1ccccc1` [Loperamide], which IC50 [3] is on record?
Its IC50 is 95 µM.

What about the “IC50 OAT1” value [7] of the same compound?
Its value is “No significant”.

With `O=C(O)C(O)Cc1c[nH]c2ccccc12` (stereo not drawn) [indolelactate] as the compound, how does the “change in plasma of the Oat3KO” value [9] read?
Its value is “accumulate in the plasma”.

Which “change in plasma of the Oat3KO” value [1, 10] does the source give for `C[C@H](CCC(=O)NCCS(=O)(=O)O)[C@H]1CC[C@H]2[C@@H]3[C@@H](O)[C@@H](O)[C@@H]4C[C@H](O)CC[C@]4(C)[C@H]3CC[C@]12C` [tauro-beta-muricholate] here?
The value was “increased”.

With `O=C(O)CCCCCCCCCCCCC(=O)O` [tetradecanedioate] as the compound, how does the “change in plasma of the Oat3KO” value [1] read?
The value was “altered”.

With `Cc1ccc(O[C@@H]2O[C@H](C(=O)O)[C@@H](O)[C@H](O)[C@H]2O)cc1` [p-cresol-glucuronide] as the compound, how does the “change in plasma of the Oat3KO” value [1] read?
The value was “significantly increased”.

Which “change in plasma of the Oat3KO” value [1] does the source give for `CCCC(O)CC(=O)O` (stereo not drawn) [3-hydroxyhexanoate] here?
The value was “altered”.

For `CCCCCCCCC(O)C(=O)O` (stereo not drawn) [2-hydroxydecanoate], which “change in plasma of the Oat3KO” value [1] is on record?
The value was “altered”.

Which “change in plasma of the Oat3KO” value [1, 10] does the source give for `C[C@H](CCC(=O)NCCS(=O)(=O)O)[C@H]1CC[C@H]2[C@@H]3[C@@H](O)C[C@@H]4C[C@H](O)CC[C@]4(C)[C@H]3CC[C@]12C` [tauroursodeoxycholate] here?
The value was “increased over ten-fold”.

With `CCCN(CCC)S(=O)(=O)c1ccc(C(=O)O)cc1` [Probenecid] as the compound, how does the IC50 [3] read?
Its IC50 is 33 µM.

Which “IC50 OAT3” value [8] does the source give for `COc1cc(N)c(Cl)cc1C(=O)NC1CCN(CCCOc2ccc(F)cc2)CC1OC` (stereo not drawn) [Cisapride] here?
The value was “No ihhibition”.

What about the “IC50 OAT1” value [5] of the same compound?
The value was “No inhibition”.

For `CC(=O)N[C@@H](Cc1c[nH]c2ccccc12)C(=O)O` [N-acetyltryptophan], which “change in plasma of the Oat3KO” value [1] is on record?
Its value is “accumulate in the plasma”.

With `C[C@H](CCC(=O)NCCS(=O)(=O)O)[C@H]1CC[C@H]2[C@@H]3[C@H](O)C[C@@H]4C[C@H](O)CC[C@]4(C)[C@H]3CC[C@]12C` [taurochenodeoxycholate] as the compound, how does the “increase in plasma of the Oat3KO” value ([1]; did not reach statistical significance) read?
Its value is ~30 fold.

For `C[C@H](CCC(=O)NCCS(=O)(=O)O)[C@H]1CC[C@H]2[C@@H]3CC[C@@H]4C[C@H](O)CC[C@]4(C)[C@H]3C[C@H](O)[C@]12C` [taurodeoxycholate], which “change in plasma of the Oat3KO” value [1, 10] is on record?
The value was “increased over ten-fold”.

Which “increase in plasma of the Oat3KO” value ([1]; significantly altered) does the source give for `C[C@H](CCC(=O)O)[C@H]1CC[C@H]2[C@@H]3[C@H](O)C[C@@H]4C[C@H](O)CC[C@]4(C)[C@H]3C[C@H](O)[C@]12C` [cholate] here?
The value was ~160 fold.
